Blank lines part the entries; values can stand above or below the compound they belong to.
What was measured:
[1] = tested on: HEL 92.1.7 cells; assay: Complement-dependent cytotoxicity (CDC) on MDR+ CD33-positive AML cell line; format: cell-based, human; details: HEL 92.1.7 cells preincubated with drug for two hours prior to anti-CD33 Ab; FIG. 4
Description: The purpose of this study was to determine whether the cytotoxic effects of an anti-CD33 antibody (HuM195) on AML cells could be enhanced by combination treatment with chemotherapeutic drugs. An MDR^+, CD33-positive AML cell line (HEL 92.1.7) was either untreated or preincubated with the indicated concentrations of thalidomide or 5-azacytidine for two hours prior to exposure to the anti-CD33 Ab. Cytotoxic activity was measured using a complement-dependent cytotoxicity (CDC) activity.

[2] = tested on: HL-60 cells; assay: Mouse AML model, HL-60 cells injected intravenously; format: in vivo, mice
Description: Mice were implanted with an AML cell line, HL-60, as follows: 5 million HL-60 cells were injected intravenously. The mice were treated with lintuzumab (10 mg/kg, q4d×4, ip), cytarabine (1 mg/kg, 5 mg/kg or 25 mg/kg, q1d×10, or 50 mg/kg or 100 mg/kg, q2d×5, ip) or lintuzumab with cytarabine (dosed as described previously). Treatment began on day one.
To confirm the data of the in vitro study, mice were implanted with an AML cell line, HL-60, as follows: 5 million HL-60 cells were injected intravenously. […] Treatment began on day one.

[3] = tested on: target cells; assay: ADCC activity, standard 51Cr release assay with NK cells; format: cell-based; details: NK cells pre-treated for 2 to 3 h with drug prior to addition to target cells; FIG. 23
Description: Viable NK cells were pre-treated for 2 to 3 h with lenalidomide or thalidomide (as described in FIG. 23) prior to addition to target cells.

[4] = tested on: primary human macrophages; assay: Macrophage migration in response to chemoattractants (CytoSelect Cell Migration Assay); format: cell-based; details: 10% human serum or 20% conditioned media from RPMI 8226 cells; p<0.05; FIG. 21
Description: (§1) The migration of macrophages in response to challenge with plating media containing 10% human serum, 20% conditioned tumor cell media, or 50 ng/ml TGF-β, VEGF, TNF-α, or IFN-γ was evaluated using the CytoSelect Cell Migration Assay (Cell Biolabs, San Diego, Calif.). […] The study was stopped 18 hours later and migration was evaluated after dissociation of the cells from the membrane followed by detection with Cyquant GR dye.
as §1, with “serum or” for “serum,”, “media” for “media, or 50 ng/ml TGF-β, VEGF, TNF-α, or IFN-γ”, “studies were” for “study was”, “h” for “hours”

[5] = target: T1, CD33 (Homo sapiens, UniProt P20138); assay: Binding of deglycosylated SGN-33 to CD33 by ELISA; details: data not shown
T1 sequence (P20138 18-364): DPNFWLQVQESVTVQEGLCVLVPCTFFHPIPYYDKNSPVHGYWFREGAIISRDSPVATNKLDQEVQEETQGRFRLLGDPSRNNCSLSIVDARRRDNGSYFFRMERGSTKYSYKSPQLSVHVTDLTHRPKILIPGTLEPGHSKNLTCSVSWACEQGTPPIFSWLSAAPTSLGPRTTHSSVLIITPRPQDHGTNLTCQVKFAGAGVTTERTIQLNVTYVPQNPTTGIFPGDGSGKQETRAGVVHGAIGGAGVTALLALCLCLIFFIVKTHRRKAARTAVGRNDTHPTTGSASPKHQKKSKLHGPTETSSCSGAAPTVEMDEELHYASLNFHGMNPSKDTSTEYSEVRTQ

[6] = Effector function (ADCC or CDC activity) of deglycosylated antibody; format: cell-based; details: data not shown; unlike the intact antibody
[7] = target: T1, CD33; assay: SGN-33 signaling in HL-60 cells, primary human monocytes and macrophages (CD33 immunoprecipitation, Western blot); format: cell-based; parameters: endogenous in cells; host or cells: HL-60 (ATCC); primary human CD14+ monocytes (Cambrex); macrophages derived from human PBMCs; details: HL-60 and monocytes; 30 minutes; FIG. 16
Description: Deglycosylation was confirmed by CE-SDS. […] Cell lysates were prepared and CD33 immunoprecipitated using an anti-CD33 rabbit polyclonal antibody (Santa Cruz Biotechnology, Santa Cruz, Calif.) prior to SDS PAGE gel electrophoresis. Western blot analyses of these samples were performed using the 4G10 phosphotyrosine antibody (Upstate Biotechnology, Temucula, Calif.), anti-CD33 antibody (NovoCastra, Norwell, Mass.), and anti-SHP-1 antibody (Calbiochem, San Diego, Calif.). Control lysate for SHP-1 was prepared from a B cell lymphoma cell line.

Compound: Nc1ncn([C@@H]2O[C@H](CO)[C@@H](O)[C@H]2O)c(=O)n1 [5-azacytidine]
sensitivity of MDR+ AML cells to HuM195-mediated CDC activity [1]: enhanced the sensitivity

Compound: Nc1ccn([C@@H]2O[C@H](CO)[C@@H](O)[C@@H]2O)c(=O)n1 [cytarabine, reference compound]
percent survival rates compared to untreated controls ([2]; low doses of cytarabine alone, ip, FIG. 22): increasing percent survival rates

Compound: Nc1cccc2c1CN(C1CCC(=O)NC1=O)C2=O (stereo not shown) [lenalidomide, reference compound]
day by which mice were removed from study due to tumor progression ([2]; lenalidomide 25 mg/kg, qd×3, ip alone, control mice about day 60, FIG. 24): ~90 days
SGN-33 mediated ADCC [3]: enhance SGN-33 mediated ADCC

Compound: O=C1CCC(N2C(=O)c3ccccc3C2=O)C(=O)N1 (stereo not shown) [thalidomide]
sensitivity of MDR+ AML cells to HuM195-mediated CDC activity [1]: enhanced the sensitivity
SGN-33 mediated ADCC [3]: enhance SGN-33 mediated ADCC

binding to CD33 [5]: confirmed
recruitment of SHP-1 to the CD33 complex [7]: resulted in recruitment of SHP-1
Compound: deglycosylated SGN-33: SGN-33 treated with PN-glycosidase F; does not interact with Fc receptors
macrophage migration [4]: significantly reduced
effector function, including ADCC or CDC activity [6]: did not mediate effector function

— patent US20110038856A1, “METHODS OF TREATING NEOPLASTIC, AUTOIMMUNE AND INFLAMMATORY DISEASES” (Seattle Genetics, Inc., priority 2006, published 2011)
